Source: DBAASP
≈ marks a conversion by molar mass, not a printed value. Where “and” joins values, the source holds several entries; their conditions need not be identical. Equal entries are not always repeated.

Tests used:
Experiment in all cases: ≥ marks a high value that may be exact or a test limit, other limits are often not marked, values filed in µg/mL are converted to µM
[1] = tested on: Escherichia coli ATCC 25922
[2] = tested on: Staphylococcus aureus ATCC 6538
[3] = tested on: Escherichia coli D21
[4] = tested on: Escherichia coli W160-37
[5] = tested on: Escherichia coli ML-35p
[6] = tested on: Staphylococcus aureus ATCC 700699
[7] = tested on: Staphylococcus aureus ATCC 12600
[8] = tested on: Streptococcus mutans ATCC 25175
[9] = tested on: Pseudomonas aeruginosa ATCC 27853
[10] = tested on: Batrachochytrium dendrobatidis
[11] = tested on: Staphylococcus epidermidis
[12] = tested on: Listeria innocua
[13] = tested on: Escherichia coli
[14] = tested on: Pasteurella multocida
[15] = tested on: Leuconostoc lactis
[16] = tested on: Bacillus cereus
[17] = tested on: Micrococcus luteus
[18] = tested on: Staphylococcus aureus
[19] = tested on: Streptococcus uberis
[20] = tested on: Staphylococcus aureus ATCC 33592
[21] = tested on: Escherichia coli MG1655
[22] = tested on: Staphylococcus aureus ATCC 33591
[23] = tested on: Klebsiella pneumoniae ATCC 700603
[24] = tested on: Staphylococcus aureus ATCC 29213
[25] = tested on: Salmonella enterica subsp. enterica serovar Typhimurium ATCC 14028
[26] = tested on: Staphylococcus aureus ATCC 6538P
[27] = tested on: Staphylococcus aureus TK784
[28] = tested on: Staphylococcus epidermidis ATCC 12228
[29] = tested on: Shigella dysenteriae ATCC 9752
[30] = tested on: Bacillus subtilis ATCC 6633
[31] = tested on: Klebsiella pneumoniae ATCC 10031
[32] = tested on: Micrococcus luteus ATCC 10240
[33] = tested on: Pseudomonas aeruginosa

Compound CC[C@H](C)[C@H](NC(=O)[C@H](CCCCN)NC(=O)[C@H](CCCN=C(N)N)NC(=O)[C@@H](NC(=O)[C@H](CC(C)C)NC(=O)[C@H](CCC(N)=O)NC(=O)[C@@H](NC(=O)[C@H](Cc1ccc(O)cc1)NC(=O)[C@H](CCC(N)=O)NC(=O)[C@@H]1CCCN1C(=O)[C@@H](NC(=O)[C@H](CC(C)C)NC(=O)[C@@H](NC(=O)[C@H](Cc1c[nH]c2ccccc12)NC(=O)[C@H](CC(C)C)NC(=O)[C@H](CO)NC(=O)[C@@H]1CCCN1C(=O)[C@H](Cc1cnc[nH]1)NC(=O)[C@@H](N)Cc1ccccc1)C(C)C)[C@@H](C)CC)[C@@H](C)CC)[C@@H](C)CC)C(=O)N[C@@H](CC(C)C)C(=O)N[C@@H](CCCCN)C(=O)N[C@@H](CO)C(=O)NCC(=O)O [FHPSLWVLIPQYIQLIRKILKSG] has an MIC [1] of over 50 µM, an MIC [2] of 35.4 µM (≈ 97.2 µg/mL) and an MIC [3] of at least 50 µM.
Compound CC[C@H](C)[C@H](NC(=O)[C@H](CCCCN)NC(=O)[C@H](CCCN=C(N)N)NC(=O)[C@@H]1CCCN1C(=O)[C@@H](NC(=O)[C@H](CC(C)C)NC(=O)[C@H](CCCCN)NC(=O)[C@H](CC(C)C)NC(=O)[C@@H](N)Cc1ccccc1)[C@@H](C)CC)C(=O)N[C@H](C(=O)N[C@H](C(=O)N[C@@H](C)C(=O)N[C@@H](CC(C)C)C(N)=O)[C@@H](C)O)C(C)C [FLKLIPRKIVTAL] has an MIC [4] of at least 265 µM.
CC(=O)NCC(=O)N[C@@H](Cc1ccccc1)C(=O)N[C@@H](CCCN=C(N)N)C(=O)N[C@@H](CCCCN)C(=O)N[C@@H](Cc1ccccc1)C(=O)N[C@@H](Cc1cnc[nH]1)C(=O)N[C@@H](CCCCN)C(=O)N[C@@H](Cc1ccccc1)C(=O)N[C@@H](Cc1c[nH]c2ccccc12)C(=O)N[C@@H](C)C(N)=O [GFRKFHKFWA] gave an MIC [5] of at least 500 µM and an MIC [6] of at least 500 µM.
Work on CC[C@H](C)[C@H](NC(=O)[C@H](C)NC(=O)CNC(=O)[C@H](Cc1ccccc1)NC(=O)[C@H](CC(C)C)NC(=O)CN)C(=O)N[C@@H](C)C(=O)NCC(=O)N[C@@H](Cc1ccccc1)C(=O)N[C@H](C(=O)N[C@@H](CCCCN)C(=O)NCC(=O)NCC(=O)N[C@@H](Cc1c[nH]c2ccccc12)C(=O)N[C@@H](CCC(N)=O)C(=O)NCC(=O)N[C@@H](CCSC)C(=O)N[C@H](C(=O)N[C@@H](CCCCN)C(=O)NCC(N)=O)C(C)C)[C@@H](C)CC [GLFGAIAGFIKGGWQGMVKG] yielded an MIC [7] of 15.7 µM (≈ 31.3 µg/mL), an MIC [1] of 15.7 µM (≈ 31.3 µg/mL) and an MIC [8] of 11.1 µM (≈ 22.1 µg/mL). The MIC [9] was over 62.7 µM.
CC[C@H](C)[C@H](NC(=O)[C@H](CO)NC(=O)CNC(=O)[C@H](CC(C)C)NC(=O)[C@@H](NC(=O)CNC(=O)[C@H](Cc1ccccc1)NC(=O)[C@H](CC(C)C)NC(=O)CN)C(C)C)C(=O)N[C@@H](C)C(=O)N[C@@H](CCCCN)C(=O)N[C@@H](Cc1cnc[nH]1)C(=O)N[C@H](C(=O)N[C@@H](CC(C)C)C(=O)N1CCC[C@H]1C(=O)N[C@@H](Cc1cnc[nH]1)C(=O)N[C@H](C(=O)N[C@H](C(=O)N1CCC[C@H]1C(=O)N[C@H](C(=O)N[C@H](C(=O)N[C@@H](C)C(=O)N[C@@H](CCC(=O)O)C(=O)N[C@@H](CCCCN)C(=O)N[C@@H](CC(C)C)C(N)=O)[C@@H](C)CC)C(C)C)C(C)C)C(C)C)C(C)C [GLFGVLGSIAKHVLPHVVPVIAEKL] was tested, and the MIC [10] was at least 35.4 µM, the MIC [11] was 9.64 µM (≈ 25 µg/mL) and the MIC [12] was 19.3 µM (≈ 50 µg/mL). For the same compound, the MIC [13] was over 38.5 µM, the MIC [14] was 19.3 µM (≈ 50 µg/mL) and the MIC [15] was 4.63 µM (≈ 12 µg/mL). The MIC [16] was at least 38.5 µM, the MIC [17] was 19.3 µM (≈ 50 µg/mL) and the MIC [18] was 4.63 µM (≈ 12 µg/mL). For the same compound, the MIC [19] was 19.3 µM (≈ 50 µg/mL).
In the case of CC[C@H](C)[C@H](NC(=O)[C@H](Cc1c[nH]c2ccccc12)NC(=O)[C@H](CO)NC(=O)CNC(C)=O)C(=O)N[C@@H](CCCCN)C(=O)N[C@@H](CCCN=C(N)N)C(=O)N[C@@H](CC(C)C)C(=O)N[C@@H](CC(N)=O)C(=O)N[C@@H](CO)C(=O)N[C@@H](Cc1c[nH]c2ccccc12)C(=O)N[C@@H](CC(C)C)C(=O)N[C@@H](CCCN=C(N)N)C(=O)N[C@@H](CCCCN)C(N)=O [GSWIKRLNSWLRK], the MIC [20] is reported as at least 38.9 µM and the MIC [21] is reported as 4 µM and 8 µM.
CC[C@H](C)[C@H](NC(=O)[C@H](CC(=O)O)NC(=O)[C@H](CCCCN)NC(=O)[C@H](C)NC(=O)[C@H](CC(C)C)NC(=O)CNC(=O)[C@H](CCCCN)NC(=O)[C@H](CC(C)C)NC(=O)[C@@H](NC(=O)[C@H](CC(=O)O)NC(=O)[C@@H](NC(=O)[C@@H](NC(=O)CN)C(C)C)C(C)C)[C@@H](C)CC)C(=O)N[C@@H](C)C(=O)NCC(=O)N[C@@H](Cc1cnc[nH]1)C(=O)N[C@@H](CC(C)C)C(=O)N[C@@H](C)C(=O)N[C@@H](CO)C(=O)N[C@@H](CCCCN)C(=O)N[C@H](C(=O)N[C@@H](CCSC)C(=O)N[C@@H](CC(N)=O)C(=O)N[C@@H](CCCCN)C(=O)N[C@@H](CC(C)C)C(N)=O)C(C)C [GVVDILKGLAKDIAGHLASKVMNKL] was tested, and the MIC [22] was 25 µM (≈ 64.8 µg/mL), the MIC [1] was 12.5 µM (≈ 32.4 µg/mL) and the MIC [23] was 50 µM (≈ 130 µg/mL). The MIC [6] was at least 50 µM, the MIC [24] was 50 µM (≈ 130 µg/mL) and the MIC [9] was 100 µM (≈ 259 µg/mL).
CC(C)C[C@H](NC(=O)[C@H](Cc1c[nH]c2ccccc12)NC(=O)[C@H](CCCCN)NC(=O)[C@H](CCCCN)NC(=O)[C@H](CC(C)C)NC(=O)[C@H](Cc1c[nH]c2ccccc12)NC(=O)[C@H](CCCCN)NC(=O)[C@@H](N)CCCCN)C(=O)N[C@@H](CCCCN)C(N)=O [KKWLKKWLK] was tested, and the MIC [25] was over 63.6 µM, the MIC [26] was 31.8 µM (≈ 40 µg/mL) and the MIC [27] was at least 63.6 µM. It also gave an MIC [1] of 31.8 µM (≈ 40 µg/mL), an MIC [28] of over 63.6 µM and an MIC [9] of 63.6 µM (≈ 79.9 µg/mL). It also gave an MIC [29] of at least 63.6 µM, an MIC [30] of at least 63.6 µM and an MIC [31] of at least 63.6 µM. It also gave an MIC [32] of at least 63.6 µM.
Compound CC(C)C[C@H](NC(=O)[C@H](Cc1c[nH]c2ccccc12)NC(=O)[C@H](CCCCN)NC(=O)[C@H](CCCCN)NC(=O)[C@H](CC(C)C)NC(=O)[C@H](Cc1c[nH]c2ccccc12)NC(=O)[C@@H](N)CCCCN)C(N)=O [KWLKKWL] has an MIC [25] of over 79.9 µM, an MIC [26] of at least 79.9 µM and an MIC [27] of at least 79.9 µM. For the same compound, the MIC [1] was over 79.9 µM, the MIC [28] was over 79.9 µM and the MIC [9] was over 79.9 µM. For the same compound, the MIC [29] was at least 79.9 µM, the MIC [30] was at least 79.9 µM and the MIC [31] was at least 79.9 µM. The MIC [32] was at least 79.9 µM.
Work on CC(C)C[C@H](NC(=O)[C@H](Cc1c[nH]c2ccccc12)NC(=O)[C@H](CCCCN)NC(=O)[C@H](CC(C)C)NC(=O)[C@H](CC(C)C)NC(=O)[C@H](CCCCN)NC(=O)[C@H](CCCCN)NC(=O)[C@H](CC(C)C)NC(=O)[C@@H](N)CC(C)C)C(=O)N[C@@H](CCCCN)C(=O)N[C@@H](CCCCN)C(N)=O [LLKKLLKWLKK] yielded an MIC [25] of 2.84 µM (≈ 4 µg/mL), an MIC [26] of 1.42 µM (≈ 2 µg/mL) and an MIC [27] of 11.3 µM (≈ 16 µg/mL). It also gave an MIC [1] of 2.84 µM (≈ 4 µg/mL), an MIC [28] of 2.84 µM (≈ 4 µg/mL) and an MIC [9] of 5.67 µM (≈ 7.99 µg/mL). It also gave an MIC [29] of 2.84 µM (≈ 4 µg/mL), an MIC [30] of 2.84 µM (≈ 4 µg/mL) and an MIC [31] of 2.84 µM (≈ 4 µg/mL). It also gave an MIC [32] of 2.84 µM (≈ 4 µg/mL).
Compound CC[C@H](C)[C@H](NC(=O)[C@H](Cc1c[nH]c2ccccc12)NC(=O)[C@H](CCCCN)NC(=O)[C@H](CO)NC(=O)[C@H](CC(C)C)NC(=O)[C@H](Cc1ccccc1)NC(=O)[C@@H](NC(=O)[C@H](CCCCN)NC(=O)[C@H](CC(C)C)NC(=O)[C@H](CC(C)C)NC(=O)[C@H](CCCCN)NC(=O)[C@@H]1CCCN1)[C@@H](C)O)C(=O)NCC(=O)O [PKLLKTFLSKWIG] has an MIC [18] of 3.27 µM (≈ 5 µg/mL), an MIC [33] of 19.6 µM (≈ 30 µg/mL) and an MIC [4] of 4.57 µM (≈ 7 µg/mL).
